Test results published in ChEMBL document CHEMBL6087390, “Pyridine and Pyrimidine hybrids as privileged scaffolds in antimalarial drug discovery: A recent development” (Bioorg Med Chem Lett, 2024).
Converted amounts (≈) assume the structure as drawn. Values belong to the compound of their own block, whether it stands above or below them.

Tests used:
Plasmodium falciparum [1] = experiment: Antimalarial activity against CQ-resistant Plasmodium falciparum Dd2; assay type: functional, organism-based
Plasmodium falciparum [2] = assay type: functional, organism-based; conditions: W2
Plasmodium falciparum [3] = experiment: microbe, parasite or virus in culture; conditions: 3D7
Plasmodium falciparum [4] = experiment: microbe, parasite or virus in culture; conditions: 3D7, 48 h
Plasmodium falciparum [5] = experiment: Antimalarial activity against Plasmodium falciparum RKL9; assay type: functional, organism-based
Plasmodium falciparum [6] = experiment: Antiplasmodial activity against Plasmodium falciparum K1; assay type: functional, organism-based
[7] = Cytotoxicity against human MRC5 cells assessed as inhibition of cell growth incubated for 72 hrs by MTT assay; assay type: toxicity, cell-based
Plasmodium falciparum [8] = experiment: Antimalarial activity against Plasmodium falciparum 3D7 assessed as reduction in malarial growth measured after 48 hrs by SYBR green dye based analysis; assay type: functional, organism-based; conditions: 3D7, 48 h
Plasmodium falciparum [9] = experiment: microbe, parasite or virus in culture; conditions: 3D7, 72 h
[10] = Cytotoxicity against african green monkey Vero cells assessed as cell viability measured after 48 hrs by MTT assay; assay type: toxicity, cell-based, Chlorocebus sabaeus; conditions: chlorocebus sabaeus, time 48 hrs

Structure (SMILES): COc1ccc2nc(/C=C/c3ccncc3)cc(Cl)c2c1
IC50 (Plasmodium falciparum [1]): 2.54 µM

Structure (SMILES): Cc1ccc(S(=O)(=O)NCCCCNc2ncnc3c2cnn3-c2ccc(F)cc2)cc1
IC50 (Plasmodium falciparum [2]): 5.13 µM

Structure (SMILES): O=S(=O)(NCCCCNc1ncnc2c1cnn2-c1ccc(Cl)cc1)c1ccc(F)cc1
IC50 (Plasmodium falciparum [2]): 43.4 µM

Structure (SMILES): COc1ccc(-c2cc(-c3ccco3)nc(S)n2)cc1OCc1ccccc1
IC50 (Plasmodium falciparum [4]): 5.1 µg/mL (≈ 13.1 µM)
IC50 (Plasmodium falciparum [5]): 2 µg/mL (≈ 5.12 µM)

Structure (SMILES): COc1cc(-c2cc(-c3cc(Cl)sc3Cl)nc(S)n2)ccc1OCc1ccccc1
IC50 (Plasmodium falciparum [4]): 9.9 µg/mL (≈ 20.8 µM)
IC50 (Plasmodium falciparum [5]): 6.1 µg/mL (≈ 12.8 µM)

Structure (SMILES): COc1cc(-c2cc(-c3cc(Cl)sc3Cl)nc(N)n2)ccc1OCc1ccccc1
IC50 (Plasmodium falciparum [4]): 6.3 µg/mL (≈ 13.7 µM)
IC50 (Plasmodium falciparum [5]): 2.9 µg/mL (≈ 6.33 µM)

Structure (SMILES): COc1ccccc1C(=O)/C=C/c1ccccn1
IC50 (Plasmodium falciparum [3]): 0.48 µg/mL

Structure (SMILES): NCCCCNc1ncnc2c1cnn2-c1ccc(F)cc1
IC50 (Plasmodium falciparum [2]): 21.6 µM

Structure (SMILES): Cc1cc(C)nc(NS(=O)(=O)c2ccc(-n3cc(COc4ccc5ccc(=O)oc5c4)nn3)cc2)n1
IC50 (Plasmodium falciparum [8]): > 79.4 µM

Structure (SMILES): Cc1ccc(-n2ncc3c(NCCCCNS(=O)(=O)c4ccc(C)cc4)ncnc32)cc1
IC50 (Plasmodium falciparum [2]): 12.2 µM

Structure (SMILES): NCCCCNc1ncnc2c1cnn2-c1ccc(Cl)cc1
IC50 (Plasmodium falciparum [2]): 13.2 µM

Structure (SMILES): COc1ccc(C2c3c(C)n[nH]c3Oc3nc4oc(=O)c(C#N)c(N)c4c(N)c32)cc1OC (centres undefined)
IC50 (Plasmodium falciparum [3]): 0.96 µg/mL

Structure (SMILES): Cc1ccc(-n2ncc3c(NCCCCN)ncnc32)cc1
IC50 (Plasmodium falciparum [2]): 18.2 µM

Structure (SMILES): COc1ccc(-c2cc(-c3ccco3)nc(N)n2)cc1OCc1ccccc1
IC50 (Plasmodium falciparum [4]): 4.4 µg/mL (≈ 11.8 µM)
IC50 (Plasmodium falciparum [5]): 3.2 µg/mL (≈ 8.57 µM)

Structure (SMILES): COc1ccc2nc(/C=C/c3ccncc3)ccc2c1
IC50 (Plasmodium falciparum [1]): > 10 µM

Structure (SMILES): COc1cc(-c2cc(-c3ccco3)nc(S)n2)ccc1OCc1ccccc1
IC50 (Plasmodium falciparum [4]): 12.2 µg/mL (≈ 31.2 µM)
IC50 (Plasmodium falciparum [5]): 5.4 µg/mL (≈ 13.8 µM)

Structure (SMILES): Cc1n[nH]c2c1C(c1ccc(Cl)cc1)c1c(nc3oc(=O)c(C#N)c(N)c3c1N)O2 (centres undefined)
IC50 (Plasmodium falciparum [3]): 0.84 µg/mL

Structure (SMILES): COc1cc(-c2cc(-c3ccco3)nc(N)n2)ccc1OCc1ccccc1
IC50 (Plasmodium falciparum [4]): 20 µg/mL (≈ 53.6 µM)
IC50 (Plasmodium falciparum [5]): 10.5 µg/mL (≈ 28.1 µM)

Structure (SMILES): COc1ccc(-c2cc(-c3cc(Cl)sc3Cl)nc(S)n2)cc1OCc1ccccc1
IC50 (Plasmodium falciparum [4]): 4.2 µg/mL (≈ 8.83 µM)
IC50 (Plasmodium falciparum [5]): 2.2 µg/mL (≈ 4.63 µM)

Structure (SMILES): Cc1cc(C)nc(NS(=O)(=O)c2ccc(-n3cc(COc4ccc5c(-c6ccccc6)c(C)c(=O)oc5c4)nn3)cc2)n1
IC50 (Plasmodium falciparum [8]): > 67.3 µM

Structure (SMILES): Cc1n[nH]c2c1C(c1ccc(Br)cc1)c1c(nc3oc(=O)c(C#N)c(N)c3c1N)O2 (centres undefined)
IC50 (Plasmodium falciparum [3]): 1.85 µg/mL

Structure (SMILES): Cc1nn(-c2ccccc2)c(-n2ccnc2)c1-c1cc(-c2cc[nH]c2)nc2nc3ccccc3n12
IC50 (Plasmodium falciparum [4]): 0.07 µg/mL (≈ 0.153 µM)

Structure (SMILES): Cc1n[nH]c2c1C(c1ccc(F)cc1)c1c(nc3oc(=O)c(C#N)c(N)c3c1N)O2 (centres undefined)
IC50 (Plasmodium falciparum [3]): 1.48 µg/mL

Structure (SMILES): C[C@H]1[C@H](OC(=O)CCC(=O)O)O[C@@H]2O[C@@]3(C)CC[C@H]4[C@H](C)CC[C@@H]1[C@@]24OO3 [ARTESUNATE]
IC50 (Plasmodium falciparum [9]): 1 µM

Structure (SMILES): CC/C=C\C/C=C\C/C=C\C/C=C\C/C=C\C/C=C\CCC(=O)O [DOCONEXENT]
IC50 (Plasmodium falciparum [3]): 0.004 µM

Structure (SMILES): CC(C)=CCC1=C(O)C(=O)c2ccccc2C1=O [LAPACHOL]
CC50 at 48 h [10]: > 4130 µM

Structure (SMILES): COc1ncnc(NS(=O)(=O)c2ccc(N)cc2)c1OC [SULFADOXINE]
IC50 (Plasmodium falciparum [2]): 15 µM

The next lines start with results.

IC50 (Plasmodium falciparum [3]): 62 µM
Structure (SMILES): COc1ccc(-n2cc(-c3cncc4ccccc34)nn2)cn1

IC50 (Plasmodium falciparum [3]): > 50 µg/mL
Structure (SMILES): O=S(=O)(c1ccc(-n2cc(COc3ccc(F)cc3)nn2)cc1)N1CCN(c2ccccn2)CC1

IC50 (Plasmodium falciparum [3]): 46 µg/mL
Structure (SMILES): O=S(=O)(c1ccc(-n2cc(COc3ccc(Br)cc3)nn2)cc1)N1CCN(c2ccccn2)CC1

IC50 (Plasmodium falciparum [6]): 27.8 µM
Structure (SMILES): O=C1CCCN1c1ccc(-n2nc3c(S(=O)(=O)N4CCOCC4)cccn3c2=O)cc1
IC50 at 72 h [7]: > 64 µM

IC50 (Plasmodium falciparum [3]): > 71.7 µg/mL
Structure (SMILES): Cc1cc(=O)oc2cc(OCc3cn(-c4ccc(S(=O)(=O)N5CCN(c6ccccn6)CC5)cc4)nn3)ccc12

IC50 (Plasmodium falciparum [5]): 1.7 µg/mL (≈ 4.19 µM)
Structure (SMILES): Cc1ccc(-c2nn(-c3ccccc3)cc2/C=C/c2nnc(-c3ccncc3)o2)cc1
IC50 (Plasmodium falciparum [8]): 0.4 µg/mL

IC50 (Plasmodium falciparum [3]): 73.5 µg/mL
Structure (SMILES): O=c1cc(OCc2cn(-c3ccc(S(=O)(=O)N4CCN(c5ccccn5)CC4)cc3)nn2)c2ccccc2o1

IC50 (Plasmodium falciparum [3]): 12 µg/mL
Structure (SMILES): O=S(=O)(c1ccc(-n2cc(COc3ccc(I)cc3)nn2)cc1)N1CCN(c2ccccn2)CC1

IC50 (Plasmodium falciparum [5]): 0.8 µg/mL (≈ 2.04 µM)
Structure (SMILES): C(=C\c1cn(-c2ccccc2)nc1-c1ccccc1)/c1nnc(-c2ccncc2)o1
IC50 (Plasmodium falciparum [8]): 0.5 µg/mL

IC50 (Plasmodium falciparum [3]): > 50 µg/mL
Structure (SMILES): O=S(=O)(c1ccc(-n2cc(COc3ccc(Cl)cc3)nn2)cc1)N1CCN(c2ccccn2)CC1

IC50 (Plasmodium falciparum [6]): 2.24 µM
Structure (SMILES): O=c1n(-c2cccc(Cl)c2)nc2c(S(=O)(=O)N3CCCCC3)cccn12
IC50 at 72 h [7]: > 64 µM

IC50 (Plasmodium falciparum [6]): 8 µM
Structure (SMILES): Cc1cccc(-n2nc3ccc(S(=O)(=O)N4CCC(C)CC4)cn3c2=O)c1
IC50 at 72 h [7]: > 64 µM

IC50 (Plasmodium falciparum [3]): 48.5 µg/mL
Structure (SMILES): O=S(=O)(c1ccc(-n2cc(COc3ccccc3)nn2)cc1)N1CCN(c2ccccn2)CC1

IC50 (Plasmodium falciparum [3]): > 73.5 µg/mL
Structure (SMILES): O=c1ccc2ccc(OCc3cn(-c4ccc(S(=O)(=O)N5CCN(c6ccccn6)CC5)cc4)nn3)cc2o1

IC50 (Plasmodium falciparum [3]): > 50 µg/mL
Structure (SMILES): O=[N+]([O-])c1ccc(OCc2cn(-c3ccc(S(=O)(=O)N4CCN(c5ccccn5)CC4)cc3)nn2)cc1
